“Also recorded” adds a separate entry of the source.
Assays:
OBs = assay: PTH stimulation of OBs in vitro; type: cell-based
[1] = system: primary mouse osteoblastic cells; assay: PTH stimulation of primary mouse osteoblastic cells from bone marrow stroma; type: cell-based
Protocol: (§1) To determine if PTH increases osteoblast-derived VEGF-A, in vitro PTH stimulation experiments were performed on two osteoblastic cell lines. […] Osteoblastic differentiation was observed through maturational changes in gene expression of Collagen1, Osteocalcin and Pth1r and the ability to form mineralized bone nodules. […] To test whether PTH could directly induce VEGF-A in primary mouse osteoblastic cells as it could in osteoblastic cell lines, mouse bone marrow stroma was harvested and cultured in osteoblastic maturation media prior to stimulation with PTH at specific points throughout differentiation. Again, osteoblastic differentiation was monitored through analysis of Collagen1, Osteocalcin and Pth1r expression as well as by the formation of mineralizing bone nodules.

VEGF-A = assay: Immunohistochemical staining for VEGF-A in hindlimb BM; type: in vivo; settings: PTH-treated mice vs vehicle, endosteal/bone surfaces
Excerpt: Osteoblasts (OBs) and the bone marrow (BM) vasculature constitute hematopoietic stem and progenitor cell (HSPC) niches. OB-activation by Parathyroid Hormone (PTH) expands HSPCs through the BM microenvironment. Activation of osteoblasts through systemic PTH treatment or expression of a constitutively active PTH1 receptor (PTH1R) increases trabecular bone and expands HSPCs in the bone marrow. To test if the vasculature is modulated by PTH, it was first assessed whether PTH expands BM endothelial structures. In a murine model of HSPC-expanding PTH treatment, PTH increased microvessels and vascular area in hindlimb histology (FIG. 3A, 3B and 3E-3H). […] To determine if PTH expands BM vasculature by increasing proangiogenic signals, VEGF-A was analyzed in PTH-stimulated BM. […] To establish whether PTH directly stimulates osteoblastic Vegfa expression, mouse calvarial MC3T3 cells were treated with PTH at various stages of osteoblastic maturation. […] The magnitude of induction increased throughout osteoblastic differentiation. […] Bevacizumab blunted PTH-mediated expansion of phenotypic BM ECs when bevacizumab and PTH treatment was compared to PTH alone.
To determine whether the PTH-dependent increase in BM microvascularity is due to local induction of proangiogenic signals, immunostaining for candidate angiogenic factors already implicated in marrow endothelial signaling was performed.

osteolineage cells = assay: Angiogenic signals (FGF2, Vegfa) in marrow and osteolineage cells of treated mice; type: in vivo
Protocol: FGF2 is another angiogenic signal within the BM. In contrast to the effects of VEGF-A on endothelial permeability and migration, FGF2 enforces vascular stability. To determine whether osteoblastic activation by PTH can remodel the BM vasculature through the action of multiple angiogenic signals or VEGF-A alone, FGF2 changes in the marrow of PTH-stimulated mice were analyzed. Indeed, increased endosteal-associated FGF2 in hindlimb BM of mice treated with TID PTH, with a localization pattern similar to that of VEGF was observed. Moreover, FGF2 expression levels were increased within osteolineage cells isolated from TID PTH mice (FIG. 10E).
Immunoreactive VEGF-A and FGF2 were both very high along endosteal surfaces of the hindlimb BM cavity following PTH as compared to control treatment.

HSPCs = assay: Competitive transplantation of whole BM into lethally irradiated recipient mice; type: in vivo, C57B1/6 mice; settings: primary recipients of treated donor BM
Protocol: Competitive transplantation of these cells was performed using a 4:1 donor to competitor cell ratio where the competitor was a C57B1/6 wildtype CD45.2-expressing male mouse and the recipient mice (10 mice per experimental group) were also C57B1/6 wildtype CD45.2-expressing male mice (6-8 weeks of age) that had been conditioned with a split dose of 10 Gray total body irradiation. Cell cocktails (containing the 4:1 ratio donor to competitor whole bone marrow cells) were transplanted into recipients by retro-orbital injection. Recipient mice were placed on a diet containing sulfatrim prior to the transplant and for 1 month post transplantation. Peripheral blood samples were collected at 3 weeks post transplant by bleeding from the sub-mandibular venous plexus into EDTA-containing microtainer blood tubes. Blood was then separated in order to isolate an enriched sample of mononuclear cells using PBS and dextran separation. Mononuclear cells were subjected to red blood cell lysis and then prepared for flow cytometry using a panel of antibodies recognizing B, T and myeloid cells as well as CD45.1 and CD45.2. Samples were then run on an LSR-II 12 color flow cytometer and data was analyzed using TreeStar's FlowJo software. Statistics between treatment groups were analyzed by student's T test. […]

[2] = system: osteoblastic UMR106 cells; assay: In vitro PTH stimulation of osteoblastic UMR106 cells; type: cell-based
Protocol: as §1

[3] = system: BM blood vessels and perivascular stromal cells; assay: CD31 and αSMA immunostaining in the BM; type: in vivo, mice; settings: PTH
Protocol: (§2) Methods of administration and analysis of the effects of PTH either alone or in combination are described above. To determine whether bone anabolic, HSPC-expanding regimens of PTH stimulation alter the vascular niche, mice were first treated intensively with PTH and the hindlimb BM vasculature was analyzed. PTH increased BM vascular structures per hindlimb section (femur and tibia) by histomorphometric analysis (FIG. 9A) as well as the area occupied by vasculature measured within the tibial metaphysis (FIG. 9B). To clarify whether intensive PTH treatment was vasodilatory to existing vessels or increasing de novo endothelial structures, BMCs of PTH-treated mice were analyzed phenotypically by flow cytometry (FIG. 9D). Intensive PTH treatment expanded populations of BM endothelial cells defined by this immunophenotyic signature (FIG. 9E). […] This expansion of small BM blood vessels was also observed in close association with both trabecular and cortical bone when CD31 immunostaining was examined in the BM (FIG. 9E). The PTH-induced increase in endothelial structures was accompanied by an increase in perivascular α smooth muscle actin (αSMA+) (FIG. 9F), indicating a concomitant increase in perivascular, HSPC supportive stromal cells.

[4] = system: hematopoietic stem and progenitor cells (HSPCs); assay: Flow cytometric analysis of bone marrow HSPCs from treated mice; type: in vivo, C57B1/6 mice; settings: systemic PTH treatment
Protocol: All drugs were administered by intraperitoneal injection. Following 10 days of treatment, mice were sacrificed (on the morning of the eleventh day) and samples were harvested. Hindlimb bone marrow samples were used to generate the data for FIG. 8A as well as for the competitive transplantation of whole bone marrow. Hindlimb bone marrow was harvested by crushing the right hindlimb of each mouse individually using a sterile mortar and pestle in 2.5 mL phosphate buffered saline, filtered through a 40 um cell strainer and placed on ice. For flow cytometric analysis, fresh, filtered bone marrow cells were subjected to a red blood cell lysis procedure using ammonium chloride and then prepared for flow cytometry by staining with a panel of fluorescently-conjugated antibodies recognizing markers of hematopoietic stem and progenitor cells. Samples were then run on an LSR-II 12 color flow cytometer and data was analyzed using TreeStar's FlowJo software. Statistics between treatment groups were analyzed by student's T test. […]

[5] = system: vessels larger than 20 um in diameter; assay: Vascular micro-CT of vessels larger than 20 um in diameter; type: in vivo, mice; settings: vascular uCT, TID PTH
Excerpt: FIGS. 3A-3H are graphs (FIGS. 3A-3G) and pictures (FIG. 3H) showing PTH increases bone marrow microvascularity. FIG. 3A is a graph showing histomorphometric analysis of bone marrow microvascular structures per hindlimb section (femur and tibia). FIG. 3B is a graph showing histomorphometric analysis of bone marrow vascular area, measured within a region of interest in the tibial metaphysis. FIG. 3C is a graph showing frequency of CD31+ Sca1+ bone marrow endothelial cells following TID PTH treatment. FIG. 3D is a graph showing frequency of CD31+ Sca1+ bone marrow endothelial cells isolated from CollcaPTH1R-expressing mice (TG) or wildtype littermates (WT). […]
(§3) Methods of administration and analysis of the effects of PTH either alone or in combination are described above. To determine whether bone anabolic, HSPC-expanding regimens of PTH stimulation alter the vascular niche, mice were first treated intensively with PTH and the hindlimb BM vasculature was analyzed. PTH increased BM vascular structures per hindlimb section (femur and tibia) by histomorphometric analysis (FIG. 9A) as well as the area occupied by vasculature measured within the tibial metaphysis (FIG. 9B). To clarify whether intensive PTH treatment was vasodilatory to existing vessels or increasing de novo endothelial structures, BMCs of PTH-treated mice were analyzed phenotypically by flow cytometry (FIG. 9D). […]

[6] = system: mouse calvarial MC3T3 cells; assay: In vitro PTH stimulation of MC3T3 cells during osteoblastic differentiation; type: cell-based
Excerpt: Osteoblasts (OBs) and the bone marrow (BM) vasculature constitute hematopoietic stem and progenitor cell (HSPC) niches. OB-activation by Parathyroid Hormone (PTH) expands HSPCs through the BM microenvironment. Activation of osteoblasts through systemic PTH treatment or expression of a constitutively active PTH1 receptor (PTH1R) increases trabecular bone and expands HSPCs in the bone marrow. To test if the vasculature is modulated by PTH, it was first assessed whether PTH expands BM endothelial structures. In a murine model of HSPC-expanding PTH treatment, PTH increased microvessels and vascular area in hindlimb histology (FIG. 3A, 3B and 3E-3H). […] To determine if PTH expands BM vasculature by increasing proangiogenic signals, VEGF-A was analyzed in PTH-stimulated BM. […] To establish whether PTH directly stimulates osteoblastic Vegfa expression, mouse calvarial MC3T3 cells were treated with PTH at various stages of osteoblastic maturation. […] The magnitude of induction increased throughout osteoblastic differentiation. […]
To determine if PTH increases osteoblast-derived VEGF-A, in vitro PTH stimulation experiments were performed on two osteoblastic cell lines. […] Again, osteoblastic differentiation was monitored through analysis of Collagen1, Osteocalcin and Pth1r expression as well as by the formation of mineralizing bone nodules.

trabecular bone = assay: Micro-CT analysis of trabecular bone; type: in vivo, mice; settings: systemic PTH treatment
Protocol: The limbs were scanned on a Viva CT 40 (Scanco Medical, Bruttisellen, Switzerland) using a 55-kVp, 145-uA current and a 300-ms integration time with a resolution of 12.5 μm. Trabecular analysis was conducted on a 1.25-mm region 50 μm above the growth plate in the femur and a 625-μm 50 um below the growth plate in the tibia. Cortical analysis was conducted 4.375 mm above/below the growth plate of the femur/tibia for a distance of 375 μm.
Due to the dramatic induction of osteoblastic VEGF-A observed in the setting of PTH stimulation, the functional relevance of this signal in multiple aspects of BM microenvironmental activation was analyzed.

[7] = system: CD31+ Sca1+ BM endothelial cells; assay: Flow cytometry of CD31+ Sca1+ bone marrow endothelial cells; type: in vivo, mice; settings: PTH treatment vs vehicle
Protocol: All drugs were administered by intraperitoneal injection. Following 10 days of treatment, mice were sacrificed (on the morning of the eleventh day) and samples were harvested. Hindlimb bone marrow samples were used to generate the data for FIG. 8A as well as for the competitive transplantation of whole bone marrow. Hindlimb bone marrow was harvested by crushing the right hindlimb of each mouse individually using a sterile mortar and pestle in 2.5 mL phosphate buffered saline, filtered through a 40 um cell strainer and placed on ice. For flow cytometric analysis, fresh, filtered bone marrow cells were subjected to a red blood cell lysis procedure using ammonium chloride and then prepared for flow cytometry by staining with a panel of fluorescently-conjugated antibodies recognizing markers of hematopoietic stem and progenitor cells. Samples were then run on an LSR-II 12 color flow cytometer and data was analyzed using TreeStar's FlowJo software. Statistics between treatment groups were analyzed by student's T test.
as §2

BM vasculature = assay: Histomorphometric analysis of hindlimb bone marrow vasculature after PTH treatment; type: in vivo, mice; settings: PTH treatment vs vehicle
Excerpt: Osteoblasts (OBs) and the bone marrow (BM) vasculature constitute hematopoietic stem and progenitor cell (HSPC) niches. OB-activation by Parathyroid Hormone (PTH) expands HSPCs through the BM microenvironment. Activation of osteoblasts through systemic PTH treatment or expression of a constitutively active PTH1 receptor (PTH1R) increases trabecular bone and expands HSPCs in the bone marrow. To test if the vasculature is modulated by PTH, it was first assessed whether PTH expands BM endothelial structures. In a murine model of HSPC-expanding PTH treatment, PTH increased microvessels and vascular area in hindlimb histology (FIG. 3A, 3B and 3E-3H). […] To determine if PTH expands BM vasculature by increasing proangiogenic signals, VEGF-A was analyzed in PTH-stimulated BM. […]
as §3, with “9B).” for “9B). To clarify whether intensive PTH treatment was vasodilatory to existing vessels or increasing de novo endothelial structures, BMCs of PTH-treated mice were analyzed phenotypically by flow cytometry (FIG. 9D).”

For Parathyroid hormone (1-34) [PTH], the “FGF2 in OBs in vitro” value (OBs) was “simultaneously increased”, the “expression of VEGF-A in OBs in vitro” value (OBs) was “increased” and the “soluble VEGF-A protein secreted into the culture media” value ([1]; PTH treatment) was “a significant effect of PTH treatment was not detected”. The “Vegfa mRNA levels” value ([1]; as early as four hours post PTH treatment of maturing osteoblastic cells) was “increased”, the “VEGF-A protein staining in BM” value (VEGF-A) was “increased along bone surfaces; also recorded: strongly increased; also recorded: global increase” and the “endosteal-associated FGF2 in hindlimb BM” value (osteolineage cells; TID PTH) was “increased”. For the same substance, the “FGF2 expression levels within osteolineage cells” value (osteolineage cells; cells isolated from TID PTH mice) was “increases”, the “Vegfa expression in osteolineage bone-associated cells” value (osteolineage cells; cells isolated from mice treated with PTH) was “increases” and the multilineage hematopoietic reconstitution (HSPCs) was “transiently increased”. For the same substance, the VEGF-A protein secretion ([2]; by six hours post PTH-stimulation) was “increase”, the Vegfa expression ([2]; two hours post PTH stimulation, n=3, p=0.0055) was 8.500±1.320 fold change above baseline and the “perivascular α smooth muscle actin (αSMA+)” value [3] was “increase”. The “small BM blood vessels (CD31 immunostaining) associated with trabecular and cortical bone” value [3] was “expansion”, the “HSPCs in the bone marrow” value [4] was “expands” and the “vessel frequency, density or volume” value [5] was “no increase”. For the same substance, the “secreted VEGF-A protein” value [6] was “increased; also recorded: robust”, the Vegfa expression ([6]; throughout osteoblastic differentiation) was “strongly induced; also recorded: induced” and the trabecular bone (trabecular bone) was “increases”. For the same substance, the “CD31+ Sca1+ BM endothelial cells” value [7] was “increased; also recorded: expanded”, the “BM microvessels / vascular structures per hindlimb section (femur and tibia)” value (BM vasculature) was “increased” and the “vascular area (tibial metaphysis)” value (BM vasculature) was “increased”.

From US20150273055A1, “METHODS AND COMPOSITIONS FOR EXPANDING HEMATOPOIETIC STEM AND PROGENITOR CELLS” (UNIVERSITY OF ROCHESTER, priority 2012, published 2015)
